Test results reported in article PMC7179119, “A New Positron Emission Tomography Probe for Orexin Receptors Neuroimaging” (Molecules, 2020).
Where two headings read alike, the source gives them in different places.

Assays:
M2 = molecular target: T1, M2 (Homo sapiens, UniProt P08172); assay: PDSP off-target radioligand binding assay
T1 sequence (P08172 1-466): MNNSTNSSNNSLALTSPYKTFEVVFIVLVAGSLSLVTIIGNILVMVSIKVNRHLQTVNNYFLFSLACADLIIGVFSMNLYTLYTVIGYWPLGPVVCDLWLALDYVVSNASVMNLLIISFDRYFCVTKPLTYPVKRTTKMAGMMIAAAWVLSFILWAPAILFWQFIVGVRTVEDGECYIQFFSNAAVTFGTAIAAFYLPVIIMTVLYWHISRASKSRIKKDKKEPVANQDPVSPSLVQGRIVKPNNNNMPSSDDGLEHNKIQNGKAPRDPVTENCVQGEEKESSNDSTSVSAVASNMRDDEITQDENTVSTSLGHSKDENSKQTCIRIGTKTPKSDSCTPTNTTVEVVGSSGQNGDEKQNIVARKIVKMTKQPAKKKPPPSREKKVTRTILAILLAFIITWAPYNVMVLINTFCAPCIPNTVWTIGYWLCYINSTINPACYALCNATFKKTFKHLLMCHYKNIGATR
Experimental: (§1) Table S1. Off binding data of CW24.
(§2) The off-target binding assays were performed at PDSP with their standard protocol (https://pdspdb.unc.edu/pdspWeb/content/UNC-CH%20Protocol%20Book.pdf). In radioligand binding assays, CW24 was tested at a single concentration (10 µM) and in quadruplicate in 96-well plates. The binding assays were carried out in a final of volume of 125 µl per well in appropriate binding buffers. The hot ligand concentration is usually at a concentration close to the Kd (unless otherwise indicated). Total binding and nonspecific binding are determined in the absence and presence of 10 µM of the appropriate reference compound, respectively. In brief, plates are usually incubated at room temperature and in the dark for 90 mins. Reactions are stopped by vacuum filtration onto 0.3% polyethyleneimine (PEI) soaked 96-well filter mats using a 96-well Filtermate harvester, followed by three washes with cold wash buffers (for details, see Tables 2 to 24). Scintillation cocktail is then melted onto the microwave-dried filters on a hot plate and radioactivity is counted in a Microbeta counter.
(§3) Receptor % Inhibition 1 % Inhibition 2 % Inhibition 3 % Inhibition 4 Mean±SD %

5-HT5A = molecular target: T2, 5-HT5A (Homo sapiens, UniProt P47898); assay: PDSP off-target radioligand binding assay
T2 construct: NIMH PDSP
T2 sequence (P47898 whole entry, species assumed): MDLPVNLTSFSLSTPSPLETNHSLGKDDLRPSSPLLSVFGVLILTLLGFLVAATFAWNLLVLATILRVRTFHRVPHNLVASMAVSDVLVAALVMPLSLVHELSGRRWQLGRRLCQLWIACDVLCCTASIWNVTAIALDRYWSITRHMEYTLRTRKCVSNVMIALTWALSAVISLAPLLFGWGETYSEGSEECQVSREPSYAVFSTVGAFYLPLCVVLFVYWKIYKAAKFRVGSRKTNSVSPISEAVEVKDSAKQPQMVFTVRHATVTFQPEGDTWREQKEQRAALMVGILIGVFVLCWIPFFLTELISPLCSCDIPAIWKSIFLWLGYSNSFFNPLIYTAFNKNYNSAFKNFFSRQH
Experimental: as §1, §2, §3

5-HT2B = molecular target: T3, 5-HT2B (Homo sapiens, UniProt P41595); assay: PDSP off-target radioligand binding assay
T3 construct: NIMH PDSP
T3 sequence (P41595 whole entry, species assumed): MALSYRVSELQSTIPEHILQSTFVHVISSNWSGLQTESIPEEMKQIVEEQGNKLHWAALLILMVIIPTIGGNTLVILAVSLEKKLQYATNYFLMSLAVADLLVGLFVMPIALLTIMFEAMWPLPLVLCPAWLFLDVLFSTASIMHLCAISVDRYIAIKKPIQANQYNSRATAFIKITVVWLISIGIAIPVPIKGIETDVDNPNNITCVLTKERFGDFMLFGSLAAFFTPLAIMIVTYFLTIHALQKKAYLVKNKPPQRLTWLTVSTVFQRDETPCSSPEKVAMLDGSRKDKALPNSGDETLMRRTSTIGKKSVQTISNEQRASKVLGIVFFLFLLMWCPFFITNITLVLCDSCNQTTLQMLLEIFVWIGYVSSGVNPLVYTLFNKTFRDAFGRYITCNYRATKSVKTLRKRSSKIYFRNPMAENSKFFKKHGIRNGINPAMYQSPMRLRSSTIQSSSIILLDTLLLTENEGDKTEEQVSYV
Experimental: as §1, §2, §3

Sigma 1 = assay: PDSP off-target radioligand binding assay; settings: 10 µM
Experimental: as §1, §2, §3

5-HT3 = molecular target: T4, 5-HT3 (Homo sapiens, UniProt P46098); assay: PDSP off-target radioligand binding assay
T4 construct: NIMH PDSP
T4 sequence (P46098 24-478): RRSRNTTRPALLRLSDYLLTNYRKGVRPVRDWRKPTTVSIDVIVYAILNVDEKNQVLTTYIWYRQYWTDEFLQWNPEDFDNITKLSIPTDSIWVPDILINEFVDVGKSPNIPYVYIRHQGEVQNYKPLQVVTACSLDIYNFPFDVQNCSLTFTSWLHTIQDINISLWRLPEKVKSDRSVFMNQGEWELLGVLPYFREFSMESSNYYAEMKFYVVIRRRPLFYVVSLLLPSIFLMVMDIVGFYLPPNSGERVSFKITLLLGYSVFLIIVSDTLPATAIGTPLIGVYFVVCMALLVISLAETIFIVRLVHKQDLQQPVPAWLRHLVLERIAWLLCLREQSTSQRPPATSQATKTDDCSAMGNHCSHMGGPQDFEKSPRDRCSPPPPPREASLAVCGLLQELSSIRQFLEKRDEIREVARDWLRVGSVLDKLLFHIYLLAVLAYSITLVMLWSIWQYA
Experimental: as §1, §2, §3

M1 = molecular target: T5, M1 (Homo sapiens, UniProt P11229); assay: PDSP off-target radioligand binding assay
T5 sequence (P11229 1-460): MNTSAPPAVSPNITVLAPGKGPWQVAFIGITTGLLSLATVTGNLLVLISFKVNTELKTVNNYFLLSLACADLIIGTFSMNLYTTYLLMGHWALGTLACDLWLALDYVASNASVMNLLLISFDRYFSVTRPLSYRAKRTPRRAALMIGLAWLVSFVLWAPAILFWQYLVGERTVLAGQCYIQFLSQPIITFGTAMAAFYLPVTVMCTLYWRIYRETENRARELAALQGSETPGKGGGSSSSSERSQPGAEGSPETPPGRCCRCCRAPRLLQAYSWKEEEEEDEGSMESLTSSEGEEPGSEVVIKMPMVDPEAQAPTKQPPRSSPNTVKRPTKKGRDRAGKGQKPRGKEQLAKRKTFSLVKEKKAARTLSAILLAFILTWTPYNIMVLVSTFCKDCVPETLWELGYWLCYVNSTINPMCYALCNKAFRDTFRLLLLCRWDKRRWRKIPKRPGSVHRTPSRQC
Experimental: as §1, §2, §3

D5 = D5 (Homo sapiens, UniProt P21918); assay: PDSP off-target radioligand binding assay
Sequence of D5 (P21918 whole entry): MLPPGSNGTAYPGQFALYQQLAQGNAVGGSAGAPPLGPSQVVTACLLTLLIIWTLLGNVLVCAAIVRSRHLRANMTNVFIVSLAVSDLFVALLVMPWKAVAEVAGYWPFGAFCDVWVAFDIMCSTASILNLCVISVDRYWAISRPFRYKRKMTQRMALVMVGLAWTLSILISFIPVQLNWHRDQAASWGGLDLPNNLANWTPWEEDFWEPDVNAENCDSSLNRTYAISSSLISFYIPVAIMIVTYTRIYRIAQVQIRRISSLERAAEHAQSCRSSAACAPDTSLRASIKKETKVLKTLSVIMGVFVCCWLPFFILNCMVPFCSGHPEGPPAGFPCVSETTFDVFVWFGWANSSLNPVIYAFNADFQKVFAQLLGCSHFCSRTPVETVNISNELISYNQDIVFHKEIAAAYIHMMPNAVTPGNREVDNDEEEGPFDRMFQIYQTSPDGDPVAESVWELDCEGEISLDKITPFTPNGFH
Experimental: as §1, §2, §3

DAT = DAT (Homo sapiens, UniProt Q01959); assay: PDSP off-target radioligand binding assay
Sequence of DAT (Q01959 whole entry, species assumed): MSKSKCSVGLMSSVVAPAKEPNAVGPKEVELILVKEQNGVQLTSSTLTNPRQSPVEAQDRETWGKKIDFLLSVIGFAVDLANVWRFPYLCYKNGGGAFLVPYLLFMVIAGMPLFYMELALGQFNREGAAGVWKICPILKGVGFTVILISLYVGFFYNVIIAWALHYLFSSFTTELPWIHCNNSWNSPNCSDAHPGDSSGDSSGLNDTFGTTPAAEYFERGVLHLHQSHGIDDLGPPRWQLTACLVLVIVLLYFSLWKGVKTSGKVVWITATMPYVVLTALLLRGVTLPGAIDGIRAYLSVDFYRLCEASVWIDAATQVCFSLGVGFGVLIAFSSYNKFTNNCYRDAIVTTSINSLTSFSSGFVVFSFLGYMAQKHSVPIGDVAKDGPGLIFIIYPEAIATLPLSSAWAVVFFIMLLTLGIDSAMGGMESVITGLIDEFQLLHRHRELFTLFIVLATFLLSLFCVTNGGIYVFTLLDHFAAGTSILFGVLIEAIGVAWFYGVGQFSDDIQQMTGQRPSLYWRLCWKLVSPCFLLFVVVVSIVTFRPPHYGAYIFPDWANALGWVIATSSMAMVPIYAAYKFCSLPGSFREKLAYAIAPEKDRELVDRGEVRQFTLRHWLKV
Experimental: as §1, §2, §3

D2 = molecular target: T6, D2 (Homo sapiens, UniProt P14416); assay: PDSP off-target radioligand binding assay
T6 construct: NIMH PDSP
T6 sequence (P14416 whole entry): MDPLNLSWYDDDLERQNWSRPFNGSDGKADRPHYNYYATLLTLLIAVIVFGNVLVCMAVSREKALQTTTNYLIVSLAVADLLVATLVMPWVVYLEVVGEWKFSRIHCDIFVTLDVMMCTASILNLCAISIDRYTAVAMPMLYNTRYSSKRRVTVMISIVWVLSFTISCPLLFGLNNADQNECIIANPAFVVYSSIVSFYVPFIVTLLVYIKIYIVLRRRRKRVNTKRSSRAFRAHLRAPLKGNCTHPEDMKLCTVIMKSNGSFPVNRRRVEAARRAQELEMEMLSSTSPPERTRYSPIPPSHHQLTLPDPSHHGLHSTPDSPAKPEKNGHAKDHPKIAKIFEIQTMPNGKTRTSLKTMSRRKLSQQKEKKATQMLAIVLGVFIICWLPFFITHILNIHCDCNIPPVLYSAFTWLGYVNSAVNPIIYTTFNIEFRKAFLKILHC
Experimental: as §1, §2, §3

H3 = H3 (Homo sapiens, UniProt Q9Y5N1); assay: PDSP off-target radioligand binding assay
Sequence of H3 (Q9Y5N1 whole entry): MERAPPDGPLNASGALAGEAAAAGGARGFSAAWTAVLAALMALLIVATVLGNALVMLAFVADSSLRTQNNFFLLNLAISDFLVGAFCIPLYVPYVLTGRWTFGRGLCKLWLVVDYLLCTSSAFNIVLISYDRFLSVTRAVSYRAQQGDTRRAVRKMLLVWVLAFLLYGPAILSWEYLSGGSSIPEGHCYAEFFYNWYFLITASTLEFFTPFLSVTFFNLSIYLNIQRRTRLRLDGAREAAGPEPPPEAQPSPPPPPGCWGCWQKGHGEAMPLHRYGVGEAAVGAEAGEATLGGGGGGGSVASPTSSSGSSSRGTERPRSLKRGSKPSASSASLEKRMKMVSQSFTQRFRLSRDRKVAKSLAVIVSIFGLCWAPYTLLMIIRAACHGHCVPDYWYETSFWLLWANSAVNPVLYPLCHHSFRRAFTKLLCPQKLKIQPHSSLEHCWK
Experimental: as §1, §2, §3

[1] = Assessment of Lipophilicity (Log D; pH 7.4); type: physicochemical
Experimental: Log D was determined according to methods identical to those we previously reported.

[2] = quadruplicate, read-out: Mean±SD % inhibition
[3] = replicate 1, read-out: % Inhibition 1
[4] = replicate 2, read-out: % Inhibition 2
[5] = replicate 3, read-out: % Inhibition 3
[6] = replicate 4, read-out: % Inhibition 4

For `COc1ccnc(N2CCC3(CCCN(Cc4cn(C)c5ccccc45)C3=O)CC2)n1` [CW24], the inhibition at 10 µM (M2; [2]) was -0.08 ± 16.7%, the inhibition at 10 µM (M2; [3]) was -1.12% and the inhibition at 10 µM (M2; [4]) was -4.61%. For the same compound, the inhibition at 10 µM (M2; [5]) was -17.4%, the inhibition at 10 µM (M2; [6]) was 22.8% and the inhibition at 10 µM (5-HT5A; [2]) was -4.44 ± 7.73%. The inhibition at 10 µM (5-HT5A; [3]) was 5.59%, the inhibition at 10 µM (5-HT5A; [4]) was -6.33% and the inhibition at 10 µM (5-HT5A; [5]) was -13.1%. It also gave an inhibition at 10 µM (5-HT5A; [6]) of -3.89%, an inhibition at 10 µM (5-HT2B; [2]) of 21.6 ± 7.7% and an inhibition at 10 µM (5-HT2B; [3]) of 45.9%. The inhibition at 10 µM (5-HT2B; [4]) was 11.3%, the inhibition at 10 µM (5-HT2B; [5]) was 11.2% and the inhibition at 10 µM (5-HT2B; [6]) was 17.8%. The “Mean±SD % inhibition” value (Sigma 1; quadruplicate) was 12.33 ± 12.50%, the “% Inhibition 1” value (Sigma 1; replicate 1) was 8.39% and the “% Inhibition 2” value (Sigma 1; replicate 2) was 1.56%. For the same compound, the “% Inhibition 3” value (Sigma 1; replicate 3) was 8.99%, the “% Inhibition 4” value (Sigma 1; replicate 4) was 30.38% and the inhibition at 10 µM (5-HT3; [2]) was -4 ± 15.6%. The inhibition at 10 µM (5-HT3; [3]) was -7.18%, the inhibition at 10 µM (5-HT3; [4]) was 2.23% and the inhibition at 10 µM (5-HT3; [5]) was -23.9%. For the same compound, the inhibition at 10 µM (5-HT3; [6]) was 12.9%, the inhibition at 10 µM (M1; [2]) was 0.29 ± 11.9% and the inhibition at 10 µM (M1; [3]) was 17.4%. It also gave an inhibition at 10 µM (M1; [4]) of -8.79%, an inhibition at 10 µM (M1; [5]) of -6.38% and an inhibition at 10 µM (M1; [6]) of -1.13%. The inhibition at 10 µM (D5; [2]) was 15.5 ± 27.3%, the inhibition at 10 µM (D5; [3]) was 4.57% and the inhibition at 10 µM (D5; [4]) was -5.32%. The inhibition at 10 µM (D5; [5]) was 7.05%, the inhibition at 10 µM (D5; [6]) was 55.8% and the inhibition at 10 µM (DAT; [2]) was 4.6 ± 8.8%. For the same compound, the inhibition at 10 µM (DAT; [3]) was -0.27%, the inhibition at 10 µM (DAT; [4]) was -4.72% and the inhibition at 10 µM (DAT; [5]) was 8.47%. For the same compound, the inhibition at 10 µM (DAT; [6]) was 14.9%, the inhibition at 10 µM (D2; [2]) was -1.7 ± 19.3% and the inhibition at 10 µM (D2; [3]) was -8.12%. For the same compound, the inhibition at 10 µM (D2; [4]) was 21.4%, the inhibition at 10 µM (D2; [5]) was -24.2% and the inhibition at 10 µM (D2; [6]) was 4.13%. The inhibition at 10 µM (H3; [2]) was -9.38 ± 11.9%, the inhibition at 10 µM (H3; [3]) was -25% and the inhibition at 10 µM (H3; [4]) was -12.5%. It also gave an inhibition at 10 µM (H3; [5]) of 0%, an inhibition at 10 µM (H3; [6]) of 0% and a logD [1] of 2.3.
